Assay results as given in patent US7652013B2, “Inhibitors of stearoyl-CoA desaturase” (Hoffman-La Roche Inc., priority 2007, dated 2010).

The compounds below were run against T1, SCD1 (Mus musculus, UniProt P13516) (assay: SCD assay: release of tritiated water from desaturation of 9,10-3H-stearoyl CoA, mouse liver microsomes).
T1 construct: Mouse liver microsomes, prepared from mice fed a high carbohydrate diet, were a source of the SCD; from tissue; host or cells: mouse liver microsomes (mice fed a high carbohydrate diet)
T1 sequence (P13516 1-355): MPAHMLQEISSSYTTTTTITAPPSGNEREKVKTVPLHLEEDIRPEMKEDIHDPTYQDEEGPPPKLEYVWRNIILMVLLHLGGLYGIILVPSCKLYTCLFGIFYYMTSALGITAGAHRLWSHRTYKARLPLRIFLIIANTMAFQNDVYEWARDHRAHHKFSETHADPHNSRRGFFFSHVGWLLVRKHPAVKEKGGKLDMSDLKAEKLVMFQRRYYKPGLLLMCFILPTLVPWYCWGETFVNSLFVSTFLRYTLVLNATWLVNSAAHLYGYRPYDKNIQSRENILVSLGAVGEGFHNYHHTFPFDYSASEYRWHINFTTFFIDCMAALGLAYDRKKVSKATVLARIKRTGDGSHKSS
Format: biochemical
Text: Stearoyl CoA desaturase activity was monitored by a modification of the acyl carrier protein assay described by B. R. Talamo and K. Bloch in Anal. Biochem. 1968, 29, 300-304. The SCD assay monitors the release of tritiated water from the desaturation of 9,10-^3H-stearoyl CoA.
Mouse liver microsomes, prepared from mice fed a high carbohydrate diet, were a source of the SCD and cyt b5 and cyt b5 reductase, necessary accessory proteins for the coupled reaction. Reaction mixtures for compound titrations contained 50 mM Tris HCl pH 7.5, 100 mM NaCl, 0.165 mg/ml BSA, 2.4% DMSO, 1 mM NADH, 0.03% T-20, and 300 nM (9,10) ^3H-stearoyl CoA (Perkin-Elmer). Reactions were initiated upon the addition of 4 ug/ml SCD microsomes. Incubations were terminated after 25 minutes at room temperature with cold 6% TCA. After standing 10 minutes at 4 deg C., samples were centrifuged 15 minutes at 4000 rpm to pellet precipitated protein. Supernatants were added to microtiter plates containing suspensions of activated charcoal (Darco G-60, Fisher Scientific) and mixed by inversion. Plates were then centrifuged to separate ^3H—H2O product from charcoal-bound reactants. Supernatants were quantitated in a Perkin Elmer Topcount 384 after solubilization in ScintiSafe Plus 50% (Fisher Scientific).
Inhibition (%) of SCD activity by compounds was calculated according to the following formula: % Inhibition=100*[1−(CPMsample−CPMblank)/(CPMtotal−CPMblank)]
Work on Cc1cccc(CN2CCN(c3cc(=O)[nH]cn3)CC2)c1 [Example 1, 6-[4-(3-Methyl-benzyl)-piperazin-1-yl]-3H-pyrimidin-4-one] yielded an IC50 of no more than 1000 nM. Cc1ccccc1CN1CCN(c2cc(=O)[nH]cn2)CC1 [Example 2, 6-[4-(2-Methyl-benzyl)-piperazin-1-yl]-3H-pyrimidin-4-one] gave an IC50 of no more than 1000 nM. For Cc1cccc(C)c1CN1CCN(c2cc(=O)[nH]cn2)CC1 [Example 3, 6-[4-(2,6-Dimethyl-benzyl)-piperazin-1-yl]-3H-pyrimidin-4-one], the IC50 was no more than 1000 nM. Cc1ccc(CN2CCN(c3cc(=O)[nH]cn3)CC2)c(C)c1 [Example 4, 6-[4-(2,4-Dimethyl-benzyl)-piperazin-1-yl]-3H-pyrimidin-4-one] was tested, and the IC50 was no less than 1100 nM. Compound COc1ccc(CN2CCN(c3cc(=O)[nH]cn3)CC2)c(C)c1C [Example 5, 6-[4-(4-Methoxy-2,3-dimethyl-benzyl)-piperazin-1-yl]-3H-pyrimidin-4-one] has an IC50 of no less than 1100 nM. Compound COc1ccc(Br)cc1CN1CCN(c2cc(=O)[nH]cn2)CC1 [Example 6, 6-[4-(5-Bromo-2-methoxy-benzyl)-piperazin-1-yl]-3H-pyrimidin-4-one] has an IC50 of no less than 1100 nM. COc1cc(Br)cc(CN2CCN(c3cc(=O)[nH]cn3)CC2)c1O [Example 7, 6-[4-(5-Bromo-2-hydroxy-3-methoxy-benzyl)-piperazin-1-yl]-3H -pyrimidin-4-one] showed an IC50 of no more than 1000 nM. O=c1cc(N2CCN(Cc3ccccc3C(F)(F)F)CC2)nc[nH]1 [Example 8, 6-[4-(2-Trifluoromethyl-benzyl)-piperazin-1-yl]-3H -pyrimidin-4-one] gave an IC50 of no more than 1000 nM. With O=c1cc(N2CCN(Cc3cc(C(F)(F)F)ccc3C(F)(F)F)CC2)nc[nH]1 [Example 9, 6-[4-(2,5-Bis-trifluoromethyl-benzyl)-piperazin-1-yl]-3H -pyrimidin-4-one] the IC50 was no more than 1000 nM. N#Cc1cccc(CN2CCN(c3cc(=O)[nH]cn3)CC2)c1 [Example 10, 3-[4-(6-Oxo-1,6-dihydro-pyrimidin-4-yl)-piperazin-1-ylmethyl]-benzonitrile] showed an IC50 of no less than 1100 nM. N#Cc1cc(CN2CCN(c3cc(=O)[nH]cn3)CC2)ccc1F [Example 11, 2-Fluoro-5-[4-(6-oxo-1,6-dihydro-pyrimidin-4-yl) -piperazin-1-ylmethyl]-benzo-nitrile] gave an IC50 of no more than 1000 nM. In the case of O=c1cc(N2CCN(Cc3cccc(Cl)c3)CC2)nc[nH]1 [Example 12, 6-[4-(3-Chloro-benzyl)-piperazin-1-yl]-3H-pyrimidin-4-one], the IC50 is reported as no more than 1000 nM. O=c1cc(N2CCN(Cc3cccc(Br)c3)CC2)nc[nH]1 [Example 13, 6-[4-(3-Bromo-benzyl)-piperazin-1-yl]-3H-pyrimidin-4-one] was tested, and the IC50 was no more than 1000 nM. O=c1cc(N2CCN(Cc3c(Cl)cccc3Cl)CC2)nc[nH]1 [Example 14, 6-[4-(2,6-Dichloro-benzyl)-piperazin-1-yl]-3H-pyrimidin-4-one] gave an IC50 of no less than 1100 nM. In the case of O=c1cc(N2CCN(Cc3ccc(Cl)c(Cl)c3)CC2)nc[nH]1 [Example 15, 6-[4-(3,4-Dichloro-benzyl)-piperazin-1-yl]-3H-pyrimidin-4-one], the IC50 is reported as no more than 1000 nM. O=c1cc(N2CCN(Cc3c(Cl)ccc(Cl)c3Cl)CC2)nc[nH]1 [Example 16, 6-[4-(2,3,6-Trichloro-benzyl)-piperazin-1-yl]-3H-pyrimidin-4-one] was tested, and the IC50 was no more than 1000 nM. O=c1cc(N2CCN(Cc3cccc(Cl)c3Cl)CC2)nc[nH]1 [Example 17, 6-[4-(2,3-Dichloro-benzyl)-piperazin-1-yl]-3H-pyrimidin-4-one] gave an IC50 of no more than 1000 nM. For O=c1cc(N2CCN(Cc3ccccc3Br)CC2)nc[nH]1 [Example 18, 6-[4-(2-Bromo-benzyl)-piperazin-1-yl]-3H-pyrimidin-4-one], the IC50 was no more than 1000 nM. O=c1cc(N2CCN(Cc3cc(Br)ccc3F)CC2)nc[nH]1 [Example 19, 6-[4-(5-Bromo-2-fluoro-benzyl)-piperazin-1-yl]-3H -pyrimidin-4-one] showed an IC50 of no less than 1100 nM. For O=c1cc(N2CCN(Cc3cc(F)ccc3Br)CC2)nc[nH]1 [Example 20, 6-[4-(2-Bromo-5-fluoro-benzyl)-piperazin-1-yl]-3H -pyrimidin-4-one], the IC50 was no more than 1000 nM. With O=c1cc(N2CCN(Cc3ccc(F)c(F)c3)CC2)nc[nH]1 [Example 21, 6-[4-(3,4-Difluoro-benzyl)-piperazin-1-yl]-3H-pyrimidin-4-one] the IC50 was no more than 1000 nM. In the case of O=c1cc(N2CCN(Cc3ccc(F)c(Cl)c3)CC2)nc[nH]1 [Example 22, 6-[4-(3-Chloro-4-fluoro-benzyl)-piperazin-1-yl]-3H -pyrimidin-4-one], the IC50 is reported as no more than 1000 nM. Compound O=c1cc(N2CCN(Cc3cc(C(F)(F)F)ccc3Cl)CC2)nc[nH]1 [Example 23, 6-[4-(2-Chloro-5-trifluoromethyl-benzyl)-piperazin-1-yl]-3H-pyrimidin-4-one] has an IC50 of no less than 1100 nM. In the case of O=c1cc(N2CCN(Cc3cc(Cl)cc(Cl)c3O)CC2)nc[nH]1 [Example 24, 6-[4-(3,5-Dichloro-2-hydroxy-benzyl)-piperazin-1-yl]-3H-pyrimidin-4-one], the IC50 is reported as no more than 1000 nM. In the case of O=c1cc(N2CCN(Cc3cc(Br)ccc3O)CC2)nc[nH]1 [Example 25, 6-[4-(5-Bromo-2-hydroxy-benzyl)-piperazin-1-yl]-3H -pyrimidin-4-one], the IC50 is reported as no more than 1000 nM. With O=c1cc(N2CCN(Cc3cccc([N+](=O)[O-])c3)CC2)nc[nH]1 [Example 26, 6-[4-(3-Nitro-benzyl)-piperazin-1-yl]-3H-pyrimidin-4-one] the IC50 was no less than 1100 nM. Work on O=c1cc(N2CCN(Cc3ccccc3[N+](=O)[O-])CC2)nc[nH]1 [Example 27, 6-[4-(2-Nitro-benzyl)-piperazin-1-yl]-3H-pyrimidin-4-one] yielded an IC50 of no more than 1000 nM. O=c1cc(N2CCN(Cc3cc(Cl)ccc3[N+](=O)[O-])CC2)nc[nH]1 [Example 28, 6-[4-(5-Chloro-2-nitro-benzyl)-piperazin-1-yl]-3H -pyrimidin-4-one] gave an IC50 of no more than 1000 nM. O=c1cc(N2CCN(Cc3cc([N+](=O)[O-])ccc3O)CC2)nc[nH]1 [Example 29, 6-[4-(2-Hydroxy-5-nitro-benzyl)-piperazin-1-yl]-3H -pyrimidin-4-one] was tested, and the IC50 was no more than 1000 nM. O=c1cc(N2CCN(Cc3ccccc3O)CC2)nc[nH]1 [Example 30, 6-[4-(2-Hydroxy-benzyl)-piperazin-1-yl]-3H-pyrimidin-4-one] showed an IC50 of no less than 1100 nM. Compound O=c1cc(N2CCN(Cc3cc(OC(F)(F)F)ccc3O)CC2)nc[nH]1 [Example 31, 6-[4-(2-Hydroxy-5-trifluoromethoxy-benzyl)-piperazin-1-yl]-3H -pyrimidin-4-one] has an IC50 of no more than 1000 nM. In the case of Cc1c(Br)cccc1CN1CCN(c2cc(=O)[nH]cn2)CC1 [Example 35, 6-[4-(3-Bromo-2-methyl-benzyl)-piperazin-1-yl]-3H -pyrimidin-4-one], the IC50 is reported as no more than 1000 nM. In the case of O=c1cc(N2CCN(Cc3ccccc3-c3ccccc3)CC2)nc[nH]1 [Example 36, 6-(4-Biphenyl-2-ylmethyl-piperazin-1-yl)-3H-pyrimidin-4-one], the IC50 is reported as no less than 1100 nM. Work on O=c1cc(N2CCN(Cc3cccc4c3OCO4)CC2)nc[nH]1 [Example 37, 6-(4-Benzo[1,3]dioxol-4-ylmethyl-piperazin-1-yl)-3H -pyrimidin-4-one] yielded an IC50 of no less than 1100 nM. Cc1cccc(CN2CCN(c3cc(=O)[nH]cn3)CC2)c1O [Example 38, 6-[4-(2-Hydroxy-3-methyl-benzyl)-piperazin-1-yl]-3H -pyrimidin-4-one] gave an IC50 of no more than 1000 nM. Cc1ccc(O)c(CN2CCN(c3cc(=O)[nH]cn3)CC2)c1 [Example 39, 6-[4-(2-Hydroxy-5-methyl-benzyl)-piperazin-1-yl]-3H -pyrimidin-4-one] showed an IC50 of no more than 1000 nM. Compound C=CCc1cccc(CN2CCN(c3cc(=O)[nH]cn3)CC2)c1O [Example 40, 6-[4-(3-Allyl-2-hydroxy-benzyl)-piperazin-1-yl]-3H -pyrimidin-4-one] has an IC50 of no more than 1000 nM. Compound CC(C)(C)c1cccc(CN2CCN(c3cc(=O)[nH]cn3)CC2)c1O [Example 41, 6-[4-(3-tert-Butyl-2-hydroxy-benzyl)-piperazin-1-yl]-3H-pyrimidin-4-one] has an IC50 of no more than 1000 nM. Compound O=c1cc(N2CCN(Cc3cccc(F)c3O)CC2)nc[nH]1 [Example 42, 6-[4-(3-Fluoro-2-hydroxy-benzyl)-piperazin-1-yl]-3H -pyrimidin-4-one] has an IC50 of no more than 1000 nM. O=c1cc(N2CCN(Cc3cc(F)ccc3O)CC2)nc[nH]1 [Example 43, 6-[4-(5-Fluoro-2-hydroxy-benzyl)-piperazin-1-yl]-3H -pyrimidin-4-one] gave an IC50 of no more than 1000 nM. O=c1cc(N2CCN(Cc3cc(F)cc(F)c3O)CC2)nc[nH]1 [Example 44, 6-[4-(3,5-Difluoro-2-hydroxy-benzyl)-piperazin-1-yl]-3H-pyrimidin-4-one] was tested, and the IC50 was no more than 1000 nM.
